# Where two headings read alike, the source gives them in different places.
# Legend:
# [1] = test system: Key Broadleaf Weed and Crop Species; experiment: Post-emergent Test II herbicidal activity (Table 5); assay type: in vivo; details: post-emergence, 336 h, post-emergent, 14 days after application; for pest or weed control at 66 g/ha: 66 g ai/ha; for pest or weed control at 132 g/ha: 132 g ai/ha
# Method in brief: (§1)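 Test species were raised 7–21 d under greenhouse conditions until reaching the first or second true leaf, sprayed with formulated compound at 187 L/ha, and kept subirrigated to avoid wash-off. Fourteen days later, damage was rated visually on a 0–100% scale against untreated plants.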
# [2] = test system: Key Grass and Sedge Weeds as well as Grass Crops; experiment: Post-emergent Test II herbicidal activity (Table 6); assay type: in vivo; details: post-emergence, 336 h; for pest or weed control at 66 g/ha: application rate 66 g ai/ha; for pest or weed control at 132 g/ha: application rate 132 g ai/ha
# Method in brief: as §1
# [3] = ABUTH: velvetleaf (Abutilon theophrasti), read-out: Visual Growth Reduction (%) 14 Days After Application ABUTH
# [4] = AMARE: redroot pigweed (Amaranthus retroflexus), read-out: Visual Growth Reduction (%) 14 Days After Application AMARE
# [5] = BRSNN: oilseed-rape, canola (Brassica napus), read-out: Visual Growth Reduction (%) 14 Days After Application BRSNN
# [6] = CHEAL: lambsquarters (Chenopodium album), read-out: Visual Growth Reduction (%) 14 Days After Application CHEAL
# [7] = EPHHL: wild poinsettia (Euphorbia heterophylla), read-out: Visual Growth Reduction (%) 14 Days After Application EPHHL
# [8] = HELAN: sunflower (Helianthus annuus), read-out: Visual Growth Reduction (%) 14 Days After Application HELAN
# [9] = VIOTR: wild pansy (Viola tricolor), read-out: Visual Growth Reduction (%) 14 Days After Application VIOTR
# [10] = Triticum aestivum, TRZSS (wheat), read-out: Visual Growth Reduction (%) 14 Days After Application, TRZSS
# [11] = CYPES: yellow nutsedge (Cyperus esculentus), read-out: Visual Growth Reduction (%) 14 Days After Application, CYPES
# [12] = DIGSA: crabgrass (Digitaria sanguinalis), read-out: Visual Growth Reduction (%) 14 Days After Application, DIGSA
# [13] = ECHCG: barnyardgrass (Echinochloa crus-galli), read-out: Visual Growth Reduction (%) 14 Days After Application, ECHCG
# [14] = ORYSA: rice (Oryza sativa), read-out: Visual Growth Reduction (%) 14 Days After Application, ORYSA
# [15] = SETFA: giant foxtail (Setaria faberi), read-out: Visual Growth Reduction (%) 14 Days After Application, SETFA
# [16] = SORVU: grain sorghum (Sorghum vulgare), read-out: Visual Growth Reduction (%) 14 Days After Application, SORVU
# [17] = ZEAMX: maize, corn (Zea mays), read-out: Visual Growth Reduction (%) 14 Days After Application, ZEAMX
compound,measurement,setting,value
"COC(=O)c1nc(-c2ccc(I)c(F)c2)c(C)c(N)c1Cl [Compound 79, Methyl 4-amino-3-chloro-6-(3-fluoro-4-iodophenyl)-5-methylpicolinate]",pest or weed control at 66 g/ha,[1]; [3],85 to 94%
same,pest or weed control at 132 g/ha,[1]; [3],95 to 100%
same,pest or weed control at 66 g/ha,[1]; [4],60 to 74%
same,pest or weed control at 132 g/ha,[1]; [4],75 to 84%
same,pest or weed control at 66 g/ha,[1]; [5],85 to 94%
same,pest or weed control at 132 g/ha,[1]; [5],85 to 94%
same,pest or weed control at 66 g/ha,[1]; [6],95 to 100%
same,pest or weed control at 132 g/ha,[1]; [6],95 to 100%
same,pest or weed control at 66 g/ha,[1]; [7],0 to 29%
same,pest or weed control at 132 g/ha,[1]; [7],0 to 29%
same,pest or weed control at 66 g/ha,[1]; [8],95 to 100%
same,pest or weed control at 132 g/ha,[1]; [8],95 to 100%
same,pest or weed control at 66 g/ha,[1]; [9],0 to 29%
same,pest or weed control at 132 g/ha,[1]; [9],0 to 29%
same,pest or weed control at 66 g/ha,[2]; [10],0 to 29%
same,pest or weed control at 132 g/ha,[2]; [10],30 to 44%
same,pest or weed control at 66 g/ha,[2]; [11],95 to 100%
same,pest or weed control at 132 g/ha,[2]; [11],95 to 100%
same,pest or weed control at 66 g/ha,[2]; [12],60 to 74%
same,pest or weed control at 132 g/ha,[2]; [12],60 to 74%
same,pest or weed control at 66 g/ha,[2]; [13],60 to 74%
same,pest or weed control at 132 g/ha,[2]; [13],60 to 74%
same,pest or weed control at 66 g/ha,[2]; [14],0 to 29%
same,pest or weed control at 132 g/ha,[2]; [14],0 to 29%
same,pest or weed control at 66 g/ha,[2]; [15],75 to 84%
same,pest or weed control at 132 g/ha,[2]; [15],75 to 84%
same,pest or weed control at 66 g/ha,[2]; [16],60 to 74%
same,pest or weed control at 132 g/ha,[2]; [16],75 to 84%
same,pest or weed control at 66 g/ha,[2]; [17],60 to 74%
same,pest or weed control at 132 g/ha,[2]; [17],60 to 74%
